Where no end group is shown, it is not given here. [ ]: non-standard residue; d: D form. Cit = NC(=O)NCCC[C@H](N)C(=O)O; Nle = CCCC[C@H](N)C(=O)O
How the values were obtained:
Assay in all cases: REVEAL binding assay
Details in all cases: score as percentage of the signal generated by the positive control peptide
[1] = tested on: HLA-B40
Description: (§1) Binding properties to HLA for the ninemers listed in table 6 were tested for the following HLA-classes:
(§2) HLA-A1, HLA-A2, HLA-A3, HLA-A11, HLA-A24, HLA-A29, HLA-B7, HLA-B8, HLA-B14, HLA-B15, HLA-B27, HLA-B35, HLA-B40.
The peptides were synthesized as a Prospector PEPscreen®: Custom Peptide Library. Peptides 8-15 amino acids in length were synthesized in 0.5-2 mg quantities with high average purity. Quality control by MALDI-TOF Mass Spectrometry was carried out on 100% of samples.
The REVEAL™ binding assay determined the ability of each candidate peptide to bind to one or more MHC class I alleles and stabilizing the MHC-peptide complex. By comparing the binding to that of high and intermediate affinity T cell epitopes, the most likely immunogenic peptides in a protein sequence can be identified. Detection is based on the presence or absence of the native conformation of the MHC-peptide complex. Each peptide is given a score relative to the positive control peptide, which is a known T cell epitope. The score of the test peptide is reported quantitatively as a percentage of the signal generated by the positive control peptide, and the peptide is indicated as having a putative pass or fail result. Assay performance is confirmed by including an intermediate control peptide that is known to bind with weaker affinity to the allele under investigation.

[2] = tested on: HLA-B8
Description: (§5) The REVEAL™ binding assay determined the ability of each candidate peptide to bind to one or more MHC class I alleles and stabilizing the MHC-peptide complex. […] Detection is based on the presence or absence of the native conformation of the MHC-peptide complex. Each peptide is given a score relative to the positive control peptide, which is a known T cell epitope.

[3] = molecular target: HLA-A3 (Homo sapiens, UniProt P04439)
HLA-A3, sequence (P04439 25-299): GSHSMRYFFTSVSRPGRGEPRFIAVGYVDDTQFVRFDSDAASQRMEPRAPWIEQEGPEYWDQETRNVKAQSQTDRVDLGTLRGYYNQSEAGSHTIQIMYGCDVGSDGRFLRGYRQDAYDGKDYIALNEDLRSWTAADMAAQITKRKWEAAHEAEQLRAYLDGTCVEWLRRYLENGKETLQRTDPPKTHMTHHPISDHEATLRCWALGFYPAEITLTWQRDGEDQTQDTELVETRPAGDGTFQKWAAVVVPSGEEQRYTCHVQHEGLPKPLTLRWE
HLA-A3, sequence (P61769 21-119, further chain): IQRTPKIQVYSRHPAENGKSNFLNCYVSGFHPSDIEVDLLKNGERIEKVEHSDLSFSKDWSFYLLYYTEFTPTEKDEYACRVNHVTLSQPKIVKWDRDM
Description: as §1, §2
(§3) The peptides were synthesized as a Prospector PEPscreen®: Custom Peptide Library. […] Quality control by MALDI-TOF Mass Spectrometry was carried out on 100% of samples.
(§4) The REVEAL™ binding assay determined the ability of each candidate peptide to bind to one or more MHC class I alleles and stabilizing the MHC-peptide complex. By comparing the binding to that of high and intermediate affinity T cell epitopes, the most likely immunogenic peptides in a protein sequence can be identified. Detection is based on the presence or absence of the native conformation of the MHC-peptide complex. Each peptide is given a score relative to the positive control peptide, which is a known T cell epitope.

[4] = molecular target: HLA-B27 (Homo sapiens, UniProt P01889, D138H/D201E/E176V/E204Q/G107R/H137Y/K202T/N104T/N87E/Q56L/Q94K/R106L/R155S/R180L/S101D/S121N/S48T/Y140D/Y33H/Y91C)
Description: as §1, §2, §3, §4

[5] = molecular target: HLA-B7 (Homo sapiens, UniProt P01889)
HLA-B7, sequence (P61769 21-119): as the sequence (P61769 21-119, further chain) above
HLA-B7, sequence (P01889 25-299): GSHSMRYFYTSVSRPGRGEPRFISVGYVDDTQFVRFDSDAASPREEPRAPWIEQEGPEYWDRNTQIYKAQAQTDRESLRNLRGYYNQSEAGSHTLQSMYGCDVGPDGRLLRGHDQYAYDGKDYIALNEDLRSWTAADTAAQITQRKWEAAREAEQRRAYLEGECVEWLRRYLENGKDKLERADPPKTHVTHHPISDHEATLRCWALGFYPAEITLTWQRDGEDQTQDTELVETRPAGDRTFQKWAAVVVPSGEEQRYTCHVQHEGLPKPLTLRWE
Description: as §1, §2, §3, §4

[6] = molecular target: HLA-A11 (Homo sapiens, UniProt P04439, A114D/F33Y/S129P)
Description: as §1, §2, §3, §4

[7] = molecular target: HLA-A2 (Homo sapiens, UniProt P04439, D140Y/D185E/D98H/E176V/E277Q/G131W/G231S/I119V/I121R/I166T/I218V/N151K/N90K/P208A/P217A/Q86G/Q94H/R138H/R169H)
Description: as §1, §2, §3, §4

[8] = tested on: HLA-B35
[9] = tested on: HLA-A1
Description: as §5

[10] = tested on: HLA-B15
[11] = tested on: HLA-A24
Description: as §5

[12] = tested on: HLA-A29
[13] = tested on: HLA-B14

Substance | REVEAL binding score, HLA-type B40 [1] [%] | REVEAL binding score, HLA-type B8 [2] [%] | REVEAL binding score, HLA-type A3 [3] [%] | REVEAL binding score, HLA-type B27 [4] [%] | REVEAL binding score, HLA-type B7 [5] [%] | REVEAL binding score, HLA-type A11 [6] [%] | REVEAL binding score, HLA-type A2 [7] [%] | REVEAL binding score, HLA-type B35 [8] [%] | REVEAL binding score, HLA-type A1 [9] [%] | REVEAL binding score, HLA-type B15 [10] [%] | REVEAL binding score, HLA-type A24 [11] [%] | REVEAL binding score, HLA-type A29 [12] [%] | REVEAL binding score, HLA-type B14 [13] [%]
VARALAHGV | 44.29 | 14.31 | 2.77 | 0.62 | 31.59 | 3.47 | 5.85 | 0.27 | 16.10 | 11.26 | 0.32 | 29.43 | 0.17
GYIPLVGAP | 72.32 | 15.94 | 3.46 | 1.76 | 1.37 | 3.84 | 7.28 | 10.35 | 15.62 | 11.02 | 0.80 | 29.74 | 0.47
IIGGNYLIP | 65.43 | 12.18 | 3.88 | 0.97 | 15.47 | 2.81 | 8.27 | 5.35 | 21.14 | 19.93 | 10.95 | 13.88 | 1.17
GQIVGGVYL | 24.20 | 14.53 | 4.80 | 1.01 | 6.56 | 4.46 | 55.85 | 3.24 | 15.07 | 182.45 | 0.50 | 13.73 | 0.37
LMGYIPLVG | 33.55 | 20.75 | 2.53 | 1.44 | 0.41 | 2.13 | 31.94 | 0.81 | 14.17 | 9.43 | 0.51 | 24.26 | 0.08
RALAHGVRV | 70.26 | 18.08 | 2.51 | 6.37 | 2.55 | 4.45 | 8.69 | 6.07 | 20.77 | 11.84 | 0.84 | 29.73 | 0.46
P[Cit]IGVRAT[Cit] | 49.29 | 9.47 | 2.52 | 0.94 | 1.91 | 1.72 | 7.36 | 2.45 | 18.83 | 12.64 | 0.21 | 14.14 | 0.19
L[Nle]GYIPLIG | 57.46 | 17.29 | 3.98 | 0.73 | 0.89 | 2.48 | 49.48 | 2.85 | 14.33 | 14.60 | 0.71 | 25.94 | 0.15
LPAVGAPIG | 39.31 | 15.87 | 3.02 | 0.49 | 8.12 | 4.95 | 5.60 | 1.06 | 20.57 | 10.10 | 0.61 | 25.32 | 0.12
GITFSIYLI | 68.30 | 8.94 | 1.42 | 3.29 | 2.07 | 4.88 | 7.27 | 9.27 | 9.61 | 8.15 | 3.05 | 10.42 | 0.63
GGQIVGGVY | 30.75 | 14.66 | 3.47 | 0.66 | 3.99 | 2.71 | 6.88 | 0.54 | 13.97 | 110.34 | 1.78 | 20.46 | 0.32
PRLGVRATR | 14.52 | 11.46 | 3.63 | 0.86 | 42.64 | 2.73 | 6.85 | 1.65 | 17.77 | 10.04 | 0.97 | 13.35 | 0.14
VIETLTSGF | 24.04 | 12.96 | 2.55 | 1.38 | 0.71 | 3.66 | 4.84 | 2.39 | 14.61 | 10.37 | 0.82 | 13.07 | 0.35
VIDTLTCGF | 27.24 | 10.00 | 2.93 | 1.11 | 0.45 | 6.00 | 5.14 | 3.26 | 25.85 | 9.49 | 0.95 | 13.90 | 0.11
